# Measurements published in US10722496B2, “2-iminobiotin for use in the treatment of brain cell injury” (Neurophyxia B.V., priority 2015, dated 2020).
# Values joined by “and” are separate entries in the source; they are usually repeats but may differ in a detail not shown here. Equal entries are not always repeated.
# Assays:
# [1] = system: IMR-32 cell cultures; assay: LDH assay after hypoxia under mild hypothermia; type: cell-based, human; details: 30 ng/ml 2-IB post-hypoxic, 25 hours mild hypothermia (33.5° C.)
# Protocol: (§1) In-vitro hypoxia was induced for 7 hours using IMR-32 cell cultures. After the hypoxic insult, cultures were subjected to 25 hours of mild hypothermia (33.5° C.) and were incubated with or without 2-IB (10, 30, 50, 100 and 300 ng/ml). Cell morphology was evaluated by brightfield microscopy and cell damage was analyzed by LDH assays. Production of reactive oxygen species (ROS) was measured using fluorometric assays. Western blotting for PARP and phosphorylated as well as unphosphorylated akt and erkl/2 was performed.
# [2] = system: PARP, akt and erkl/2; assay: Western blotting for PARP, akt and erkl/2 under mild hypothermia; type: cell-based, human; details: post-hypoxic addition (30 ng/ml)
# Protocol: as §1
# [3] = Pharmacokinetics in adults after out of hospital cardiac arrest (Example 5B); type: in vivo, human; set-up: Obs. AUCinf (based on weight): unit not given here
# Protocol: Namely, a first cohort of eight patients received 2-IB in a dose of 0.055 mg/kg/dose every 4 hours iv, 6 times in total (part A; i.e., 0.33 mg/kg/day).
# The eight adults that suffered an out of hospital cardiac arrest were treated with 2-IB as a 15-minute IV infusion every 4 hours for 6 administrations. Target temperature management was used to maintain body temperature of 36.0 (median).
# Models were generated in order to determine the impact of dose adjustments and variability of AUC.
# An exploratory covariate analysis was performed looking at body weight, age, eGFR, SeCre, and Core temperature.
# [4] = Table 4, basic model, Max of 8 patients
# [5] = Table 4, basic model, Mean of 8 patients
# [6] = Table 4, basic model, Median of 8 patients
# [7] = Table 4, basic model, Min of 8 patients
# [8] = Table 4, basic model, OHCA patients, 0.055 mg/kg/dose iv every 4 hours x6, individual patient (ID 1-8), 0.055 mg/kg
# [9] = Table 5, covariate model with Crea0, Max of 8 patients
# [10] = Table 5, covariate model with Crea0, Mean of 8 patients
# [11] = Table 5, covariate model with Crea0, Median of 8 patients
# [12] = Table 5, covariate model with Crea0, Min of 8 patients
# [13] = Table 5, covariate model with Crea0, OHCA patients, 0.055 mg/kg/dose iv every 4 hours x6, individual patient (ID 1-8), 0.055 mg/kg
# [14] = Table 9, eGFR0 (eGFR at baseline) model, OHCA patients, 0.055 mg/kg/dose iv every 4 hours x6, individual patient (ID 1-8), 0.055 mg/kg
# [15] = Table 9, eGFR0 model, Max of 8 patients
# [16] = Table 9, eGFR0 model, Mean of 8 patients
# [17] = Table 9, eGFR0 model, Median of 8 patients
# [18] = Table 9, eGFR0 model, Min of 8 patients
# [19] = exploratory covariate analysis, 8 OHCA patients
smiles,measurement,setting,value
"N=C1N[C@H]2[C@H](CS[C@H]2CCCCC(=O)O)N1 [2-IB, 2-iminobiotin]",hypoxia-induced LDH release,[1],reduced the hypoxia-induced LDH release even under hypothermia
same,"cleavage of PARP, akt and erkl/2 phosphorylation",[2],did not influence cleavage or phosphorylation of the mentioned molecules
same,AUC cumul.,[3]; [4],5613 ng·h/mL
same,AUCinf,[3]; [4],1242 ng·h/mL
same,CL,[3]; [4],22.3 L/h
same,V,[3]; [4],33.6 L
same,VSS,[3]; [4],43.5 L
same,thalf,[3]; [4],6.3 h
same,AUC cumul.,[3]; [5],3238 ng·h/mL
same,AUCinf,[3]; [5],625 ng·h/mL
same,CL,[3]; [5],11.7 L/h
same,V,[3]; [5],14.9 L
same,VSS,[3]; [5],24.9 L
same,thalf,[3]; [5],2.5 h
same,AUC cumul.,[3]; [6],2777 ng·h/mL
same,AUCinf,[3]; [6],478 ng·h/mL
same,CL,[3]; [6],9.5 L/h
same,V,[3]; [6],12.7 L
same,VSS,[3]; [6],22.7 L
same,thalf,[3]; [6],1.6 h
same,AUC cumul.,[3]; [7],1236 ng·h/mL
same,AUCinf,[3]; [7],209 ng·h/mL
same,CL,[3]; [7],4.9 L/h
same,V,[3]; [7],5.0 L
same,VSS,[3]; [7],14.9 L
same,thalf,[3]; [7],1.0 h
same,AUC cumul.,[3]; [8],5613 ng·h/mL and 4680 ng·h/mL and 3521 ng·h/mL and 5386 ng·h/mL and 1858 ng·h/mL and 2032 ng·h/mL and 1236 ng·h/mL and 1577 ng·h/mL
same,AUCinf,[3]; [8],1152 ng·h/mL and 860 ng·h/mL and 612 ng·h/mL and 1242 ng·h/mL and 315 ng·h/mL and 343 ng·h/mL and 209 ng·h/mL and 265 ng·h/mL
same,CL,[3]; [8],6.4 L/h and 5.8 L/h and 7.6 L/h and 4.9 L/h and 11.4 L/h and 18.3 L/h and 22.3 L/h and 16.7 L/h
same,V,[3]; [8],24.3 L and 11.3 L and 7.3 L and 33.6 L and 5.0 L (2×) and 14.1 L and 19.0 L
same,VSS,[3]; [8],34.3 L and 21.3 L and 17.3 L and 43.5 L and 15.0 L and 24.1 L and 28.9 L and 14.9 L
same,thalf,[3]; [8],3.9 h and 2.8 h and 1.9 h and 6.3 h and 1.3 h and 1.2 h (2×) and 1.0 h
same,AUC cumul.,[3]; [9],5934 ng·h/mL
same,AUCinf,[3]; [9],1235 ng·h/mL
same,CL,[3]; [9],17.9 L/h
same,V,[3]; [9],34.1 L
same,VSS,[3]; [9],43.4 L
same,thalf,[3]; [9],5.4 h
same,AUC cumul.,[3]; [10],3226 ng·h/mL
same,AUCinf,[3]; [10],614 ng·h/mL
same,CL,[3]; [10],11.0 L/h
same,V,[3]; [10],15.4 L
same,VSS,[3]; [10],24.7 L
same,thalf,[3]; [10],2.3 h
same,AUC cumul.,[3]; [11],2405 ng·h/mL
same,AUCinf,[3]; [11],408 ng·h/mL
same,CL,[3]; [11],10.2 L/h
same,V,[3]; [11],13.2 L
same,VSS,[3]; [11],22.5 L
same,thalf,[3]; [11],1.5 h
same,AUC cumul.,[3]; [12],1615 ng·h/mL
same,AUCinf,[3]; [12],271 ng·h/mL
same,CL,[3]; [12],5.6 L/h
same,V,[3]; [12],4.7 L
same,VSS,[3]; [12],14.0 L
same,thalf,[3]; [12],1.0 h
same,AUC cumul.,[3]; [13],5934 ng·h/mL and 4803 ng·h/mL and 2726 ng·h/mL and 4886 ng·h/mL and 2063 ng·h/mL and 2085 ng·h/mL and 1694 ng·h/mL and 1615 ng·h/mL
same,AUCinf,[3]; [13],1235 ng·h/mL and 884 ng·h/mL and 464 ng·h/mL and 1063 ng·h/mL and 349 ng·h/mL and 352 ng·h/mL and 291 ng·h/mL and 271 ng·h/mL
same,CL,[3]; [13],6.0 L/h and 5.6 L/h and 10.0 L/h and 5.7 L/h and 10.3 L/h and 17.9 L/h and 16.0 L/h and 16.3 L/h
same,V,[3]; [13],24.5 L and 11.8 L and 7.2 L and 34.1 L and 4.7 L and 14.5 L and 21.3 L and 5.1 L
same,VSS,[3]; [13],33.8 L and 21.1 L and 16.5 L and 43.4 L and 14.0 L and 23.8 L and 30.6 L and 14.4 L
same,thalf,[3]; [13],4.1 h and 2.8 h and 1.4 h and 5.4 h and 1.3 h and 1.2 h and 1.5 h and 1.0 h
same,Obs. AUCinf (based on weight),"[3]; Table 8, covariate model with Crea0, individual patient (ID 1-8)",291 and 271 and 1235 and 884 and 464 and 1063 and 349 and 352
same,AUC,[3]; [14],5905 ng·h/mL and 4813 ng·h/mL and 2712 ng·h/mL and 4896 ng·h/mL and 2060 ng·h/mL and 2061 ng·h/mL and 1705 ng·h/mL and 1636 ng·h/mL
same,AUCinf,[3]; [14],1227 ng·h/mL and 886 ng·h/mL and 462 ng·h/mL and 1067 ng·h/mL and 349 ng·h/mL and 348 ng·h/mL and 292 ng·h/mL and 274 ng·h/mL
same,CL,[3]; [14],6.0 L/h and 5.6 L/h and 10.1 L/h and 5.7 L/h and 10.3 L/h and 18.1 L/h and 15.9 L/h and 16.1 L/h
same,V,[3]; [14],24.5 L and 11.8 L and 7.3 L and 34.2 L and 4.7 L and 14.8 L and 21.1 L and 5.0 L
same,VSS,[3]; [14],33.8 L and 21.1 L and 16.5 L and 43.5 L and 14.0 L and 24.1 L and 30.4 L and 14.3 L
same,thalf,[3]; [14],4.1 h and 2.8 h and 1.4 h and 5.4 h and 1.3 h and 1.2 h and 1.5 h and 1.0 h
same,AUC,[3]; [15],5905 ng·h/mL
same,AUCinf,[3]; [15],1227 ng·h/mL
same,CL,[3]; [15],18.1 L/h
same,V,[3]; [15],34.2 L
same,VSS,[3]; [15],43.5 L
same,thalf,[3]; [15],5.4 h
same,AUC,[3]; [16],3224 ng·h/mL
same,AUCinf,[3]; [16],613 ng·h/mL
same,CL,[3]; [16],11.0 L/h
same,V,[3]; [16],15.4 L
same,VSS,[3]; [16],24.7 L
same,thalf,[3]; [16],2.3 h
same,AUC,[3]; [17],2387 ng·h/mL
same,AUCinf,[3]; [17],405 ng·h/mL
same,CL,[3]; [17],10.2 L/h
same,V,[3]; [17],13.3 L
same,VSS,[3]; [17],22.6 L
same,thalf,[3]; [17],1.5 h
same,AUC,[3]; [18],1636 ng·h/mL
same,AUCinf,[3]; [18],274 ng·h/mL
same,CL,[3]; [18],5.6 L/h
same,V,[3]; [18],4.7 L
same,VSS,[3]; [18],14.0 L
same,thalf,[3]; [18],1.0 h
same,Obs. AUCinf (based on weight),"[3]; Table 10, covariate model with eGFR, individual patient (ID 1-8)",292 and 274 and 1227 and 886 and 462 and 1067 and 349 and 348
same,Obs. AUCinf (based on weight),"[3]; Table 10, Max of 8 patients",1227
same,Obs. AUCinf (based on weight),"[3]; Table 10, Mean of 8 patients",613
same,Obs. AUCinf (based on weight),"[3]; Table 10, Median of 8 patients",405
same,Obs. AUCinf (based on weight),"[3]; Table 10, Min of 8 patients",274
same,influence of body weight on clearance,[3]; [19],not influenced by body weight
same,influence of body weight on volume,[3]; [19],influenced by body weight
same,influence of renal function on clearance,"[3]; renal function as Serum Creatinine or eGFR before treatment, exploratory covariate analysis",appears to be influenced be renal function
